In patent publication US20260258048A1, “LACTAM-CONTAINING IMIDAZOPYRIDAZINE IL-17 INHIBITOR COMPOUNDS” (Janssen Pharmaceutica NV, priority 2023, published 2026):

Assays:
[1] = target: IL-17A(FLAG-tagged): IL-17RA(His-tagged) (Homo sapiens, UniProt Q16552, K93Q); assay: IL-17A(FLAG-tagged): IL-17RA(His-tagged) binding disruption Eu-HTRF assay; conditions: class of the average IC50 where tested more than once
Text: IL-17A(FLAG-tagged): IL-17RA(His-tagged) binding disruption Eu-HTRF assay An antibody directed against the FLAG tag of IL-17A (SEQ ID NO: 1) is labeled with the HTRF donor chromophore (Europium-cryptate). IL-17A is present as a dimer that is “locked into” this quaternary structure due to the formation of loop-spanning intramolecular disulfide bridges. The construct of IL-17RA used in the assay excludes the […] portion of the receptor and is fused to a C-terminal 10×His tag (SEQ ID NO:2). An antibody directed against the His tag of the IL-17RA chimera is labeled with the HTRF acceptor chromophore (“D2”). The fluorescence-resonance energy transfer (FRET) depends on the vicinity of the donor chromophore to the acceptor, and interruption of the binding between the IL-17A and IL-17RA causes the reduction/loss of FRET. Therefore, this assay allows to evaluate the compound effect on the binding IL-17A and IL-17RA by monitoring the fluorescence intensity of donor vs acceptor. The assay is run as described below.
40 nl of 2-fold serial diluted compound solution for total 22 dilution points is added into each well of a 1536-well, white, low-volume, non-binding plate (Greiner #782904), then 2 μl of FLAG tagged IL-17A at 2× final concentration (1 μM) in solution of PBS+0.01% Triton-X100 is added to each well. The assay plate is briefly centrifuged then incubated for 1 h at rt. A mixed solution is prepared containing 2×5 nM 10HIS×IL-17RA, 2×2.5 nM Eu-anti-FLAG (CISBIO), 2×5 nM D2-anti-HIS (CISBIO) in PBS+0.01% Triton-X100+200 mM Potassium Fluoride (Sigma 60238) and 2 μl of mix is added to each well of the assay plate. The plate is briefly centrifuged then incubated for 2 h at rt. The HTRF intensities at the wavelength of donor (615 nm) and acceptor (665 nm) are measured using BMG Pherastar. The ratio between intensities at two wavelengths is calculated and plotted against the compound concentration and the data is fitted to a one-site competition model to yield IC50 of the compound.

[2] = tested on: IL-17A-induced G-CSF production in human normal keratinocyte (NHK); assay: NHK assay: IL-17A-induced G-CSF production in normal human keratinocytes; assay type: cell-based; conditions: Homo sapiens, Keratinocyte, 24 h, IL-17A 5 ng/mL, class of the average IC50 where tested more than once
Experimental: IL-17A acts directly on keratinocytes through binding to dimeric receptor IL-17RA/RC and drives the production of a number of inflammatory mediators known to be elevated in psoriasis lesional tissue. IL-17A small molecule inhibitors that block the IL-17A to interact with IL-17R would inhibit the IL-17A signaling in its targeted cells such as keratinocytes. The compound functional activity is evaluated for its impact on IL-17A-induced G-CSF production in human normal keratinocyte (NHK).
Adult normal human keratinocytes are cultured in keratinocyte growth medium (Lonza) in a flask till reaching ~90% confluence, then cells are transferred to a 384-well plate at density of 3000-4000 cell/well. Recombinant human IL-17A (Gibco PHC9174) is pre-incubated with titrated compound or DMSO for 1 h at rt then added to the cell culture plate. The final concentration of IL-17A is 5 ng/mL and DMSO is 0.2%, in the culture containing 5% FBS. Cells are cultured/treated for 24 h at 37° C. Supernatants are collected and G-CSF production is measured through HTRF technology using Human G-CSF Kit (CisBio). G-CSF concentration was extrapolated from the standard curve and IC50 is determined using GraphPad Prism. Cell viability is also evaluated using CellTiter-Glo kit (Promega) and effect of compound on cell viability is compared to DMSO control.

Sequence of UniProt Q16552 (Q16552 with tags, fused parts or gaps K93Q): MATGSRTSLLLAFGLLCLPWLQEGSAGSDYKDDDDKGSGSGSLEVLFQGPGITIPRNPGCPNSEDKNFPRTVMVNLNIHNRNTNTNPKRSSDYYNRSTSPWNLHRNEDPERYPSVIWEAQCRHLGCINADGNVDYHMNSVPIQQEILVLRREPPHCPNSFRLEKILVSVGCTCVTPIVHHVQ

SMILES	IC50 [1] [nM]	IC50 [2] [nM]
O=C(N[C@H](c1cn2ncc([C@H](O)[C@H]3C[C@H](C(F)(F)F)NC3=O)cc2n1)C1CCC(F)(F)CC1)c1nonc1C1CC1 (relative stereo) [Example 63, 4-Cyclopropyl-N—((S)-(4,4-difluorocyclohexyl)(7-((R*)-hydroxy((3R*,5R*)-2-oxo-5-(trifluoromethyl)pyrrolidin-3-yl)methyl)imidazo[1,2-b]pyridazin-2-yl)methyl)-1,2,5-oxadiazole-3-carboxamide]	400 to 4000	> 4000
O=C(N[C@H](c1cn2ncc([C@H](O)[C@@H]3C[C@H](C(F)(F)F)NC3=O)cc2n1)C1CCC(F)(F)CC1)c1nonc1C1CC1 (relative stereo) [Example 64, 4-Cyclopropyl-N—((S)-(4,4-difluorocyclohexyl)(7-((R*)-hydroxy((3S*,5R*)-2-oxo-5-(trifluoromethyl)pyrrolidin-3-yl)methyl)imidazo[1,2-b]pyridazin-2-yl)methyl)-1,2,5-oxadiazole-3-carboxamide]	400 to 4000	< 400
O=C(N[C@H](c1cn2ncc(C[C@@H]3C[C@H](C(F)(F)F)NC3=O)cc2n1)C1CCC(F)(F)CC1)c1nonc1C1CC1 (relative stereo) [Example 68, 4-Cyclopropyl-N—((S)-(4,4-difluorocyclohexyl)(7-(((3R*,5R*)-2-oxo-5-(trifluoromethyl)pyrrolidin-3-yl)methyl)imidazo[1,2-b]pyridazin-2-yl)methyl)-1,2,5-oxadiazole-3-carboxamide]	400 to 4000	400 to 4000
O=C(N[C@H](c1cn2ncc(C[C@H]3C[C@H](C(F)(F)F)NC3=O)cc2n1)C1CCC(F)(F)CC1)c1nonc1C1CC1 (relative stereo) [Example 69, 4-Cyclopropyl-N—((S)-(4,4-difluorocyclohexyl)(7-(((3S*,5R*)-2-oxo-5-(trifluoromethyl)pyrrolidin-3-yl)methyl)imidazo[1,2-b]pyridazin-2-yl)methyl)-1,2,5-oxadiazole-3-carboxamide]	400 to 4000	400 to 4000
O=C(N[C@H](c1cn2ncc(C[C@H]3C[C@@H](C(F)(F)F)NC3=O)cc2n1)C1CCC(F)(F)CC1)c1nonc1C1CC1 (relative stereo) [Example 71, 4-Cyclopropyl-N—((S)-(4,4-difluorocyclohexyl)(7-(((3S*,5S*)-2-oxo-5-(trifluoromethyl)pyrrolidin-3-yl)methyl)imidazo[1,2-b]pyridazin-2-yl)methyl)-1,2,5-oxadiazole-3-carboxamide]	400 to 4000	> 4000
O=C(N[C@H](c1cn2ncc([C@@H](O)[C@@H]3C[C@@H](C(F)(F)F)NC3=O)cc2n1)C1CCC(F)(F)CC1)c1nonc1C1CC1 (relative stereo) [Example 72, 4-Cyclopropyl-N—((S)-(4,4-difluorocyclohexyl(7-((S*)-hydroxy((3S*,5S*)-2-oxo-5-(trifluoromethyl)pyrrolidin-3-yl)methyl)imidazo[1,2-b]pyridazin-2-yl)methyl)-1,2,5-oxadiazole-3-carboxamide]	400 to 4000	400 to 4000
O=C(N[C@H](c1cn2ncc([C@@H](O)[C@H]3C[C@@H](C(F)(F)F)NC3=O)cc2n1)C1CCC(F)(F)CC1)c1nonc1C1CC1 (relative stereo) [Example 73]	400 to 4000	400 to 4000
O=C(N[C@H](c1cn2ncc([C@H](O)[C@H]3C[C@@H](C(F)(F)F)NC3=O)cc2n1)C1CCC(F)(F)CC1)c1nonc1C1CC1 (relative stereo) [Example 77, 4-Cyclopropyl-N—((S)-(4,4-difluorocyclohexyl)(7-((R*)-hydroxy((3R*,5S*)-2-oxo-5-(trifluoromethyl)pyrrolidin-3-yl)methyl)imidazo[1,2-b]pyridazin-2-yl)methyl)-1,2,5-oxadiazole-3-carboxamide]	> 4000	400 to 4000
C[C@@H](c1cnn2cc([C@@H](NC(=O)c3nonc3C3CC3)C3CCC(F)(F)CC3)nc2c1)[C@H]1C[C@@H](C(F)(F)F)NC1=O (relative stereo) [Example 78, 4-Cyclopropyl-N—((S)-(4,4-difluorocyclohexyl)(7-((R*)-1-((3R*,5S)-2-oxo-5-(trifluoromethyl)pyrrolidin-3-yl)ethyl)imidazo[1,2-b]pyridazin-2-yl)methyl)-1,2,5-oxadiazole-3-carboxamide]	> 4000	> 4000
C[C@H]1C[C@@H](Cc2cnn3cc([C@@H](NC(=O)c4nonc4C4CC4)C4CCC(F)(F)CC4)nc3c2)C(=O)N1 (relative stereo) [Example 82, 4-Cyclopropyl-N—((S)-(4,4-difluorocyclohexyl)(7-(((3R*,5S*)-5-methyl-2-oxopyrrolidin-3-yl)methyl)imidazo[1,2-b]pyridazin-2-yl)methyl)-1,2,5-oxadiazole-3-carboxamide]	400 to 4000	> 4000

Second part, led by results:

IC50 [1] [nM]	SMILES	IC50 [2] [nM]
< 400	CC(C)(CC[C@H](NC(=O)c1nonc1C1CC1)c1cn2ncc([C@H](O)[C@H]3C[C@@H](C(F)(F)F)NC3=O)cc2n1)C(F)(F)F (relative stereo) [Example 65, 4-Cyclopropyl-N—((S)-5,5,5-trifluoro-1-(7-((R*)-hydroxy((3R*,5S)-2-oxo-5-(trifluoromethyl)pyrrolidin-3-yl)methyl)imidazo[1,2-b]pyridazin-2-yl)-4,4-dimethylpentyl)-1,2,5-oxadiazole-3-carboxamide]	< 400
< 400	O=C(N[C@H](c1cn2ncc(C[C@@H]3C[C@@H](C(F)(F)F)NC3=O)cc2n1)C1CCC(F)(F)CC1)c1nonc1C1CC1 (relative stereo) [Example 70, 4-Cyclopropyl-N—((S)-(4,4-difluorocyclohexyl)(7-(((3R*,5S*)-2-oxo-5-(trifluoromethyl)pyrrolidin-3-yl)methyl)imidazo[1,2-b]pyridazin-2-yl)methyl)-1,2,5-oxadiazole-3-carboxamide]	< 400
< 400	O=C(N[C@H](c1cn2ncc([C@H](O)[C@@H]3C[C@@H](C(F)(F)F)NC3=O)cc2n1)C1CCC(F)(F)CC1)c1nonc1C1CC1 (relative stereo) [Example 75, 4-Cyclopropyl-N—((S)-(4,4-difluorocyclohexyl)(7-((R*)-hydroxy((3S*,5S*)-2-oxo-5-(trifluoromethyl)pyrrolidin-3-yl)methyl)imidazo[1,2-b]pyridazin-2-yl)methyl)-1,2,5-oxadiazole-3-carboxamide]	< 400
< 400	C[C@H](c1cnn2cc([C@@H](NC(=O)c3nonc3C3CC3)C3CCC(F)(F)CC3)nc2c1)[C@H]1C[C@@H](C(F)(F)F)NC1=O (relative stereo) [Example 79, 4-Cyclopropyl-N—((S)-(4,4-difluorocyclohexyl)(7-((S*)—1-((3R*,5S)-2-oxo-5-(trifluoromethyl)pyrrolidin-3-yl)ethyl)imidazo[1,2-b]pyridazin-2-yl)methyl)-1,2,5-oxadiazole-3-carboxamide]	< 400
< 400	C[C@H](c1cnn2cc([C@@H](NC(=O)c3nonc3C3CC3)C3CCC(F)(F)CC3)nc2c1)[C@@H]1C[C@@H](C(F)(F)F)NC1=O (relative stereo) [Example 81, 4-Cyclopropyl-N—((S)-(4,4-difluorocyclohexyl)(7-((S*)-1-((3S*,5S)-2-oxo-5-(trifluoromethyl)pyrrolidin-3-yl)ethyl)imidazo[1,2-b]pyridazin-2-yl)methyl)-1,2,5-oxadiazole-3-carboxamide]	< 400
